Reference: PMC8424644, “Thermodynamic Stability and Speciation of Ga(III) and Zr(IV) Complexes with High-Denticity Hydroxamate Chelators” (Inorganic Chemistry, 2021)
Marks after values point to notes of the source that are not given here.

Tests used:
[1] = Fe(III) complex stability, pH-dependent UV–vis titrations; format: physicochemical
Text: (§1) To evaluate the thermodynamic stability of Ga(III) and Zr(IV) complexes of the investigated ligands, the binding properties and speciation of Fe(III) complexes have first been determined (all the details are given in the Supporting Information). There are several reasons for this protocol. First, (i) the electron configuration of Ga(III) (d^10) and Zr(IV) (d^0) hinders the attainment of spectral information for most of the complexes. Furthermore, (ii) both metal ions are highly acidic and they are readily hydrolyzed over almost the entire pH range. In addition, (iii) the high charge to size ratio of the Zr(IV) ion implies the formation of complexes with an exceptional thermodynamic stability (already at very low pH); as a consequence, the stability constants cannot be directly determined using standard potentiometric titrations. Thus, the thermodynamic stability constants of the Fe(III)-H3L1 and Fe(III)-H4L2 systems were first determined (using a combination of potentiometric and pH-dependent UV–vis titrations), followed by Fe(III)–Ga(III) and Fe(III)–Zr(IV) metal–metal competition experiments. […]

[2] = Fe(III) complex stability, potentiometric titrations; format: physicochemical; details: 25 °C, I = 0.1 M NaClO4
Text: as §1
Accordingly, the following speciation could be drawn from the spectra collected: the complexes formation starts at pH<1 involving two hydroxamate groups coordinated to Fe(III) ion, while the three hydroxamate complexes are observed over pH range 3-9. Above pH 9, the absorbance begins to […]

SMILES	pK of [FeHL] ([FeHL1]+ to [FeL1]) ([1]; from UV–vis log β values (supplement))	log β [FeL] [2]	log β [FeHL] ([1]; pH-dependent UV–vis titrations, 25 °C, I = 0.1 M NaClO4)	log β [FeHL] [2]
O=C1CCCN(O)C(=O)CCCNC(=O)CCCN(O)C(=O)CCCNC(=O)CCCN(O)C(=O)CCCN1 [H3L1, 1,11,21-Trihydroxy-1,6,11,16,21,26-hexaazacyclotriacontane-2,7,12,17,22,27-hexaone]	3.21	28.7(1) ^d		
N[C@H]1CCCCNC(=O)CCCN(O)C(=O)CCCNC(=O)CCCN(O)C(=O)CCCNC(=O)CCCN(O)C(=O)CCCNC(=O)CCCN(O)C(=O)CCCNC1=O [H4L2, (S)-43-Amino-6,16,26,36-tetrahydroxy-1,6,11,16,21,26,31,36,41-nonaazacycloheptatetracontane-2,7,12,17,22,27,32,37,42-nonaone]			36.96(7) ^e	36.82(6) ^d
